Experimental data taken from US20060173048A1, “Imidazole derivatives” (priority 2005, published 2006).

melting point | Compound
144 to 147 °C | CCn1c(-c2ccccc2Cl)nc(-c2ccncc2)c1-c1ccc(Cl)cc1 [Example 15, 4-[5-(4-Chloro-phenyl)-2-(2-chloro-phenyl)-1-ethyl-1H-imidazol-4-yl]-pyridine]
151 to 154 °C | C=CCn1c(-c2c(C)cc(C)cc2C)nc(-c2ccncc2)c1-c1ccc(Cl)cc1 [Example 21, 4-[1-Allyl-5-(4-chloro-phenyl)-2-(2,4,6-trimethyl-phenyl)-1H-imidazol-4-yl]-pyridine]
138 to 140 °C | CCn1c(-c2c(Cl)cccc2Cl)nc(-c2ccnc(OC)c2)c1-c1ccc(Cl)cc1 [Example 55, 4-[5-(4-Chloro-phenyl)-2-(2,6-dichloro-phenyl)-1-ethyl-1H-imidazol-4-yl]-2-methoxy-pyridine]
220 to 222 °C | CCCn1c(-c2c(Cl)cccc2Cl)nc(-c2ccncc2)c1-c1ccc(Cl)cc1 [Example 49, 4-[5-(4-Chloro-phenyl)-2-(2,6-dichloro-phenyl)-1-propyl-1H-imidazol-4-yl]-pyridine]
199 to 200 °C | CCn1c(C(c2ccccc2)c2ccccc2)nc(-c2ccncc2)c1-c1ccc(Cl)cc1 [Example 39, 4-[2-Benzhydryl-5-(4-chloro-phenyl)-1-ethyl-1H-imidazol-4-yl]-pyridine]
226 to 227 °C | CCn1c(-c2c(C)cc(C)cc2C)nc(-c2ccncc2)c1-c1ccc(Cl)cc1 [Example 12, 4-[5-(4-Chloro-phenyl)-1-ethyl-2-(2,4,6-trimethyl-phenyl)-1H-imidazol-4-yl]-pyridine]
188 to 190 °C | CCn1c(-c2c(C)cccc2Cl)nc(-c2ccncc2)c1-c1ccc(Cl)cc1 [Example 17, 4-[2-(2-Chloro-6-methyl-phenyl)-5-(4-chloro-phenyl)-1-ethyl-1H-imidazol-4-yl]-pyridine]
184 to 186 °C | CCn1c(C(c2cccc(F)c2)c2cccc(F)c2)nc(-c2ccncc2)c1-c1ccc(Cl)cc1 [Example 53, 4-[2-[Bis-(3-fluoro-phenyl)-methyl]-5-(4-chloro-phenyl)-1-ethyl-1H-imidazol-4-yl]-pyridine]
225 to 227 °C | CCn1c(C(O)(c2cccc(F)c2)c2cccc(F)c2)nc(-c2ccncc2)c1-c1ccc(Cl)cc1 [Example 46, [5-(4-Chloro-phenyl)-1-ethyl-4-pyridin-4-yl-1H-imidazol-2-yl]-bis-(3-fluoro-phenyl)-methanol]
221 to 223 °C | CCn1c(C(O)(C(C)C)C(C)C)nc(-c2ccncc2)c1-c1ccc(Cl)cc1 [Example 41, 3-[5-(4-Chloro-phenyl)-1-ethyl-4-pyridin-4-yl-1H-imidazol-2-yl]-2,4-dimethyl-pentan-3-ol]
255 to 256 °C | CCn1c(-c2c(OC)cc(OC)cc2OC)nc(-c2ccncc2)c1-c1ccc(Cl)cc1 [Example 18, 4-[5-(4-Chloro-phenyl)-1-ethyl-2-(2,4,6-trimethoxy-phenyl)-1H-imidazol-4-yl]-pyridine]
191 to 193 °C | CCn1c(-c2c(C)cc(C)cc2C)nc(-c2ccncc2)c1-c1ccc(Cl)cc1Cl [Example 6, 4-[1-Ethyl-5-(2,4-dichloro-phenyl)-2-(2,4,6-trimethyl-phenyl)-1H-imidazol-4-yl]-pyridine]
279 to 280 °C | CCn1c(-c2cc3ccccc3[nH]2)nc(-c2ccncc2)c1-c1ccc(Cl)cc1 [Example 33, 2-[5-(4-Chloro-phenyl)-1-ethyl-4-pyridin-4-yl-1H-imidazol-2-yl]-1H-indole]
144 to 147 °C | CCn1c(-c2ccccc2Br)nc(-c2ccncc2)c1-c1ccc(Cl)cc1 [Example 16, 4-[2-(2-Bromo-phenyl)-5-(4-chloro-phenyl)-1-ethyl-1H-imidazol-4-yl]-pyridine]
193 to 195 °C | CCn1c(C(O)(c2cccc(C(F)(F)F)c2)c2cccc(C(F)(F)F)c2)nc(-c2ccncc2)c1-c1ccc(Cl)cc1 [Example 45, [5-(4-Chloro-phenyl)-1-ethyl-4-pyridin-4-yl-1H-imidazol-2-yl]-bis-(3-trifluoromethyl-phenyl)-methanol]
200 to 201 °C | CCCn1c(-c2c(Cl)cccc2Cl)nc(-c2ccncc2)c1-c1ccc(C)cc1 [Example 50, 4-[2-(2,6-Dichloro-phenyl)-1-propyl-5-(4-methyl-phenyl)-1H-imidazol-4-yl]-pyridine]
193 to 196 °C | CCn1c(-c2c(Cl)cccc2Cl)nc(-c2ccncc2)c1-c1ccc(Cl)cc1 [Example 5, 4-[5-(4-Chloro-phenyl)-2-(2,6-dichloro-phenyl)-1-ethyl-1H-imidazol-4-yl]-pyridine]
227 to 228 °C | CCn1c(-c2c(C)cc(C)cc2C)nc(-c2ccncc2)c1-c1ccc(C(F)(F)F)cc1 [Example 13, 4-[1-Ethyl-5-(4-trifluoromethyl-phenyl)-2-(2,4,6-trimethyl-phenyl)-1H-imidazol-4-yl]-pyridine]
233 to 235 °C | OCCCn1c(-c2c(Cl)cccc2Cl)nc(-c2ccncc2)c1-c1ccc(Cl)cc1 [Example 29, 3-[5-(4-Chloro-phenyl)-2-(2,6-dichloro-phenyl)-4-pyridin-4-yl-imidazol-1-yl]-propan-1-ol]

melting point | Compound
115 to 118 °C | C=CCn1c(-c2c(C)cc(C)cc2C)nc(-c2ccncc2)c1-c1ccc(C)cc1 [Example 23, 4-[1-Allyl-5-(4-methyl-phenyl)-2-(2,4,6-trimethyl-phenyl)-1H-imidazol-4-yl]-pyridine]
194 to 196 °C | CCn1c(-c2c(C)cc(C)cc2C)nc(-c2ccncc2)c1-c1ccc(F)cc1 [Example 10, 4-[1-Ethyl-5-(4-fluoro-phenyl)-2-(2,4,6-trimethyl-phenyl)-1H-imidazol-4-yl]-pyridine]
116 to 117 °C | CCn1c(C(O)(Cc2ccccc2)Cc2ccccc2)nc(-c2ccncc2)c1-c1ccc(Cl)cc1 [Example 48, 2-[5-(4-Chloro-phenyl)-1-ethyl-4-pyridin-4-yl-1H-imidazol-2-yl]-1,3-diphenyl-propan-2-ol]
187 to 189 °C | CCn1c(-c2c(Cl)cccc2Cl)nc(-c2ccnc(Cl)c2)c1-c1ccc(Cl)cc1 [Example 54, 2-Chloro-4-[5-(4-chloro-phenyl)-2-(2,6-dichloro-phenyl)-1-ethyl-1H-imidazol-4-yl]-pyridine]
267 to 270 °C | CCn1c(-c2ccccc2)nc(-c2ccncc2)c1-c1ccc(Cl)cc1 [Example 9, 4-[5-(4-Chloro-phenyl)-1-ethyl-2-phenyl-1H-imidazol-4-yl]-pyridine]
171 to 173 °C | CCn1c(-c2c(C)cccc2C)nc(-c2ccncc2)c1-c1ccc(Cl)cc1 [Example 14, 4-[5-(4-Chloro-phenyl)-2-(2,6-dimethyl-phenyl)-1-ethyl-1H-imidazol-4-yl]-pyridine]
222 to 223 °C | CCn1c(C(OCCO)(c2cccc(C(F)(F)F)c2)c2cccc(C(F)(F)F)c2)nc(-c2ccncc2)c1-c1ccc(Cl)cc1 [Example 52, 2-[[5-(4-Chloro-phenyl)-1-ethyl-4-pyridin-4-yl-1H-imidazol-2-yl]-bis-(3-trifluoromethyl-phenyl)-methoxy]-ethanol]
209 to 210 °C | C=CCn1c(-c2c(C)cc(C)cc2C)nc(-c2ccncc2)c1-c1ccc(C(F)(F)F)cc1 [Example 20, 4-[1-Allyl-5-(4-trifluoromethyl-phenyl)-2-(2,4,6-trimethyl-phenyl)-1H-imidazol-4-yl]-pyridine]
204 to 207 °C | Cc1ccc(-c2c(-c3ccncc3)nc(-c3c(C)cc(C)cc3C)n2C)cc1 [Example 2, 4-[1-Methyl-5-(4-methyl-phenyl)-2-(2,4,6-trimethyl-phenyl)-1H-imidazol-4-yl]-pyridine]
202 to 205 °C | CCn1c(-c2c(C)cc(C)cc2C)nc(-c2ccncc2)c1-c1ccc(C(C)(C)C)cc1 [Example 7, 4-[5-(4-tert-Butyl-phenyl)-1-ethyl-2-(2,4,6-trimethyl-phenyl)-1H-imidazol-4-yl]-pyridine]
159 to 160 °C | C=CCC(O)(CC=C)c1nc(-c2ccncc2)c(-c2ccc(Cl)cc2)n1CC [Example 42, 4-[5-(4-Chloro-phenyl)-1-ethyl-4-pyridin-4-yl-1H-imidazol-2-yl]-hepta-1,6-dien-4-ol]
213 to 214 °C | FC(F)(F)Cn1c(-c2c(Cl)cccc2Cl)nc(-c2ccncc2)c1-c1ccc(Cl)cc1 [Example 25, 4-[5-(4-Chloro-phenyl)-2-(2,6-dichloro-phenyl)-1-(2,2,2-trifluoro-ethyl)-1H-imidazol-4-yl]-pyridine]
222 to 223 °C | CCn1c(C(O)(c2ccccc2)c2ccccc2)nc(-c2ccncc2)c1-c1ccc(Cl)cc1 [Example 44, [5-(4-Chloro-phenyl)-1-ethyl-4-pyridin-4-yl-1H-imidazol-2-yl]-diphenyl-methanol]
163 to 165 °C | C=CCn1c(-c2c(Cl)cccc2Cl)nc(-c2ccncc2)c1-c1ccc(Cl)cc1 [Example 22, 4-[1-Allyl-5-(4-chloro-phenyl)-2-(2,6-dichloro-phenyl)-1H-imidazol-4-yl]-pyridine]
167 to 169 °C | CCn1c(-c2ccnc3ccccc23)nc(-c2ccncc2)c1-c1ccc(Cl)cc1 [Example 32, 4-[5-(4-Chloro-phenyl)-1-ethyl-4-pyridin-4-yl-1H-imidazol-2-yl]-quinoline]
214 to 217 °C | Cc1ccc(-c2c(-c3ccncc3)nc(-c3c(Cl)cccc3Cl)n2C)cc1 [Example 1, 4-[2-(2,6-Dichloro-phenyl)-1-methyl-5-(4-methyl-phenyl)-1H-imidazol-4-yl]-pyridine]
137 to 140 °C | CCn1c(-c2c(C)cc(C)cc2C)nc(-c2ccncc2)c1-c1ccc(C)cc1 [Example 4, 4-[1-Ethyl-5-(4-methyl-phenyl)-2-(2,4,6-trimethyl-phenyl)-1H-imidazol-4-yl]-pyridine]
148 to 150 °C | CCn1c(-c2ccc(C(F)(F)F)cc2C(F)(F)F)nc(-c2ccncc2)c1-c1ccc(Cl)cc1 [Example 30, 4-[2-(2,4-Bis-trifluoromethyl-phenyl)-5-(4-chloro-phenyl)-1-ethyl-1H-imidazol-4-yl]-pyridine]
134 to 136 °C | CCCn1c(-c2c(C)cc(C)cc2C)nc(-c2ccncc2)c1-c1ccc(C)cc1 [Example 51, 4-[1-Propyl-5-(4-methyl-phenyl)-2-(2,4,6-trimethyl-phenyl)-1H-imidazol-4-yl]-pyridine]
